Laboratory results as given in article PMC7320011, “Rationally designed ruthenium complexes for 1- and 2-photon photodynamic therapy” (Nature Communications, 2020).
Like-named read-outs stand apart in the source and are kept apart here.

How the values were obtained:
[1] = system: human glioblastoma astrocytoma (U373) cells;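 further: Resazurin-to-resorufin fluorescence viability readout, 8 h compound exposure then medium change, light dose 3.1 J cm^−2 at 480 nm or 9.5 J cm^−2 at 540 nm, analysed 40 h later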
[2] = system: noncancerous retinal pigment epithelium (RPE-1) cells; experiment: (Photo-)cytotoxicity on 2D cell monolayers, RPE-1; conditions: for IC50: 1-3 as chloride salts
Description: (§1) A total of 4 × 10^3 cells were seeded on 96-well plates and allowed to adhere overnight. The cells were treated with increasing concentrations of the sample diluted in cell media achieving a total volume of 200 μL. The cells were incubated with the sample for 8 h and, after this time, the medium refreshed. To study the phototoxic effect of the sample, the cells were exposed to 480 nm (spectral half-width: 20 nm, 10 min, 5.2 mW cm^−2, 3.1 J cm^−2) or 540 nm (spectral half-width: 30 nm, 40 min, 4.0 mW cm^−2, 9.5 J cm^−2) light using an Atlas Photonics LUMOS BIO irradiator. To study the dark cytotoxicity of the sample, the cells were not irradiated and the medium exchanged. The cells were grown for an additional 40 h at 37 °C. After this time, the medium was replaced with fresh medium containing resazurin with a final concentration of 0.2 mg mL^−1. The cells were incubated for 4 h and the amount of the fluorescent product resorufin determined (λex = 540 nm, λem = 590 nm) with a SpectraMax M2 Microplate Reader (Molecular Devices). The obtained data was analyzed with the GraphPad Prism software.

[3] = Photostability (absorption spectra upon irradiation); type: physicochemical; conditions: 450 nm, 0 to 10 min (13.2 J cm^−2), air-saturated acetonitrile
Description: The sample was prepared in an air-saturated acetonitrile solution. Using a Atlas Photonics LUMOS BIO irradiator, the sample was constantly irradiated at 450 nm in time intervals from 0 to 10 min (13.2 J cm^−2). The absorption spectra from 350 to 700 nm was monitored with a SpectraMax M2 Microplate Reader (Molecular Devices) at each time interval. As positive and negative controls, respectively, [Ru(2,2′-bipyridine)3]Cl2 and Protoporphyrin IX were used.

[4] = system: human cervical carcinoma (HeLa) cells; experiment: (Photo-)cytotoxicity on 2D cell monolayers, HeLa; type: cell-based; conditions: for IC50: 1-3 as chloride salts
Description: as §1

[5] = Photobleaching by NMR; type: physicochemical; conditions: 450 nm, 10 min, 13.2 J cm^−2, CD3CN
Description: The sample was dissolved in air saturated 0.7 mL CD3CN and stored in a NMR tube in the dark. A ^1H-NMR spectrum was measured directly after preparation to ensure the identity of the sample. The sample was then irradiated at 450 nm with an Atlas Photonics LUMOS BIO irradiator (10 min, 13.2 J cm^−2). Following this treatment, a ^1H-NMR spectrum was again measured.

CN(C)c1ccc(/C=C/c2ccnc(-c3cc(/C=C/c4ccc(N(C)C)cc4)ccn3)c2)cc1.CN(C)c1ccc(/C=C/c2ccnc(-c3cc(/C=C/c4ccc(N(C)C)cc4)ccn3)c2)cc1.CN(C)c1ccc(/C=C/c2ccnc(-c3cc(/C=C/c4ccc(N(C)C)cc4)ccn3)c2)cc1.F[P-](F)(F)(F)(F)F.F[P-](F)(F)(F)(F)F.[Ru+2] [compound 2, [Ru((E,E′)-4,4′-Bis[p-(N,N-dimethylamino)styryl]-2,2′-bipyridine)3][PF6]2]
IC50 [1]: 61.4 µM
PI (480 nm) ([2]; RPE-1, dark vs 480 nm): > 2.6
PI (540 nm) ([2]; RPE-1, dark vs 540 nm): > 2.0
IC50 ([2]; read-out: IC50 540 nm (40 min, 9.5 J cm-2), RPE-1, 540 nm): 49 µM
IC50 ([2]; read-out: IC50 dark, RPE-1, dark): > 100 µM
photostability (change of absorption spectra upon irradiation) [3]: small changes in the absorption spectra
IC50 ([4]; 480 nm, read-out: IC50 480 nm (10 min, 3.1 J cm-2)): 29.4 µM
IC50 ([4]; 540 nm, read-out: IC50 540 nm (40 min, 9.5 J cm-2)): 52.3 µM
PI (480 nm) ([4]; dark vs 480 nm): > 3.4
PI (540 nm) ([4]; dark vs 540 nm): > 1.9
IC50 ([4]; dark, read-out: IC50 dark): > 100 µM
effect of irradiation on the molecular structure (NMR) [5]: decomposition of the compound
